Assay results reported in patent US10500167B2, “Droplet-embedded microfibers, and methods and devices for preparing and using same” (TRUSTEES OF PRINCETON UNIVERSITY, priority 2014, dated 2019).

How the values were obtained:
[1] = retention and release of dissolved compounds from hydrophobic PEG-DA droplet-in-fibers; type: physicochemical
Source text: FIG. 18 illustrates hydrophobic droplet-in-fibers wrapped around needles immersed in water. On the left, the fiber precursor solution contained 76 vol % PEG250DA, 20 vol % PEG700DA and 4 vol % photoinitiator. On the right, the fiber precursor solution contained 96 vol % PEG250DA and 4 vol % photoinitiator. Both fibers contained aqueous droplets with 1 wt % erioglaucine (blue dye).

[2] = retention and selective release of cargo from alginate-in-oil-in-alginate fibers; type: physicochemical
Source text: The concentration of alginate-PVA solution in the inner alginate compartment was kept the same as the alginate fiber. As for the cargos, 0.5% (v/v) 200 nm orange fluorescent particles (FluoSpheres, Invitrogen), 1% (w/v) FITC conjugated BSA, or 0.04% (v/v) of 190 nm Dragon Green fluorescent particles (Uniform Dyed Microspheres, Bangs Laboratories, Inc.) were mixed with the alginate solution. For water-based magnetic particles, 2% (v/v) of 1 μm-magnetic polystyrene particles were mixed in the alginate solution. Chemicals not indicated with vendors were purchased from Sigma-Aldrich.
Multicompartment fibers were collected as suspensions in DI water or wound between two rotating needles controlled by a motor (Barnant Motor Mixer, Model No. 700-5412). […] For selective dissolution of the cargos from the oil compartment of the fibers, ethanol (Reagent alcohol, BDH) was added to the fiber suspensions. The de-cross-linking agent, 160 mM sodium citrate (Na3C6H5O7, Sigma-Aldrich) in DI water was used as calcium chelator to degrade the alginate fiber or inner alginate particles.
As a model particle cargo, 200 nm fluorescent nanoparticles were added to the inner alginate particle to produce fluorescent core microfibers (FIG. 2, panel a, and FIG. 8, panel a).
As a non-limiting example, ethanol was used to affect oil phase removal. The oil phase, which was a solution of mineral oil, 5% (v/v) undecanol, and 2 wt % Span 80 surfactant, was slightly miscible with ethanol, and thus was able to slowly escape the oil microcompartments in the fiber in the presence of ethanol. Alginate-in-oil-in-alginate fibers were prepared with 0.3 mg·mL^−1 of a lipophilic fluorescent dye, Nile Red, in the oil droplets, and green fluorescent nanoparticles of 190 nm diameter in the inner alginate particles; one fiber sample was immersed in water, and the second fiber sample was immersed in an ethanol/water solution.

[3] = system: Escherichia coli (E. Coli, S17-1λpir); test: antibacterial effect of eugenol oil droplets on E. coli cells encapsulated in alginate fibers; type: cell-based
Source text: For the alginate fiber, 0.5-1 wt % sodium alginate (from brown algae) with 0.1-0.25 wt % poly(vinyl alcohol) (PVA; Molecular weight, 31,000-50,000) dissolved in DI water or PBS was used. PVA is a biocompatible polymer. Also, after collecting the fibers, they were rinsed with DI water or PBS, and stored in DI water to allow any water-soluble components in the fiber to be removed. […] For cell encapsulation, the alginate-PVA solution was filtered through 0.22 μm pore-sized filter prior to mixing with cells. The mammalian cells, NIH/3T3 mouse fibroblast cells (ATCC), were cultured in Dulbecco's modified Eagle medium (DMEM; ATCC) supplemented with 10% (v/v) calf bovine serum and 1% (v/v) penicillin. The cells were prepared to be 1-2×10^5 cells·mL^−1 in the final alginate solution. For encapsulating mammalian cells in the alginate fiber, a solution of 0.5 wt % alginate with 0.1 wt % PVA dissolved in PBS was used. The bacterial cells were Escherichia coli (E. Coli, S17-1λpir) that express green fluorescent protein (GFP) from a plasmid, induced by isopropyl β-D-1-thiogalactopyranoside (IPTG). More details on the cells, including plasmid construction, is recited in Drescher, et al., 2014, Curr. Biol. 24:50. The E. coli cells were prepared in the alginate solution to be 4-5×10^6 cells·mL^−1. For encapsulating bacterial cells, a solution of 1 wt % alginate with 0.25 wt % PVA dissolved in PBS was used.
(§1) For the oil droplet compartment, mineral oil with 2 wt % Span 80 was used in general. For solidifying inner alginate droplets to prevent them from escaping the oil compartment, 5% (v/v) of calcium chloride-saturated undecanol was mixed with the oil solution. The concentrations of the cargos to be carried in the oil compartment were 0.3 mg·mL^−1 for Nile red, 0.8% (v/v) for magnetic particles in oil-phase (EMG 909, FerroTec), and 10 and 20% (v/v) for eugenol. […] The final concentration of undecanol in the oil solution was 5% (v/v). In the case of using just eugenol for the oil compartment, 2 wt % Span 80 was added to eugenol to form stable droplets.
Multicompartment fibers were collected as suspensions in DI water or wound between two rotating needles controlled by a motor (Barnant Motor Mixer, Model No. 700-5412). Fibers encapsulating the fibroblast cells were collected in DMEM supplemented with 10% calf bovine serum and 1% penicillin, and stored in the 5% CO2-humidified incubator at 37° C. To test the cell viability inside the multicompartment fibers, 2 μM of calcein AM and 4 μM of ethidium-homodimer-1 (EthD-1) from LIVE/DEAD Viability/Cytotoxicity kit for mammalian cells (Molecular Probes) were applied in the DMEM 1 hour prior to the observation under a fluorescent microscope. The cell viability was analyzed with the green (calcein AM) and red (EthD-1) fluorescence images using image analysis software, ImageJ (NIH). E. coli-encapsulated fibers were either collected in LB media containing 1 mM IPTG and 100 μg·mL^−1 Kanamycin (kanamycin sulfate; Fisher). For selective dissolution of the cargos from the oil compartment of the fibers, ethanol (Reagent alcohol, BDH) was added to the fiber suspensions. The de-cross-linking agent, 160 mM sodium citrate (Na3C6H5O7, Sigma-Aldrich) in DI water was used as calcium chelator to degrade the alginate fiber or inner alginate particles.
The growth of bacterial cells, Escherichia coli (E. coli), in the oil droplet-in-alginate fibers (FIG. 2, panel d) was also tested. The E. coli cells encapsulated in the fibers were suspended in the LB medium for 21 hours, and grew well inside the fibers where they completely surrounded the oil droplets (FIG. 9). The oil microcompartments of the fiber can be used to encapsulate hydrophobic drugs or antibacterial chemicals to test their effects on the cells. For example, eugenol is an antibacterial compound found in clove oil. Eugenol was dissolved in the oil compartment, in a solution comprising mineral oil with 5% (v/v) undecanol and 2 wt % Span 80. […]

[4] = dissolution of eugenol droplets embedded in the fiber in water; type: physicochemical; details: 100% eugenol droplets
Procedure: as §1
The previously described experiments were conducted with mineral oil as the oil phase.

With `CCN(Cc1cccc(S(=O)(=O)[O-])c1)c1ccc(C(=C2C=CC(=[N+](CC)Cc3cccc(S(=O)(=O)[O-])c3)C=C2)c2ccccc2S(=O)(=O)[O-])cc1.[Na+].[Na+]` [erioglaucine] the “retention of dissolved compound in aqueous droplets” value ([1]; PEG-DA (MW=250 g/mol) fiber with 4 vol % photoinitiator) was “remained within the aqueous compartments” and the “release of dye from fiber” value ([1]; fiber precursor 76 vol % PEG250DA, 20 vol % PEG700DA, 4 vol % photoinitiator, immersed in water) was “allowed the blue dye to diffuse out of the fiber”.
With “fluorescein isothiocyanate (FITC) conjugated bovine serum albumin [FITC-conjugated BSA]” the “time over which fluorescence of encapsulated cargo was observed” value ([2]; in inner alginate particle, fiber stored in DI water) was “at least 20 hours”.
With `CCN(CC)c1ccc2nc3c4ccccc4c(=O)cc-3oc2c1` [Nile Red] the “red fluorescence in the fibers” value ([2]; ethanol/water solution, after a longer time) was “no further red fluorescence was observed in the fibers” and the “red fluorescence in the oil microcompartments” value ([2]; fiber immersed over 18 hours in water) was “red fluorescence of the Nile Red dye in the oil microcompartments was observed”.
With `C=CCc1ccc(O)c(OC)c1` [eugenol] the “growth of E. coli around the oil droplets” value ([3]; 20% (v/v) eugenol droplets, after 3 hours) was “slowed down around the oil droplets”, the “growth of E. coli around the rim of the droplets” value ([3]; 20% (v/v) eugenol droplets, after 15 hours) was “no growth was observed around the rim of the droplets” and the “cell population around the oil droplets” value ([3]; 20% (v/v) eugenol-oil droplets) was “significant decrease in the cell population around the oil droplets”. The “cell growth around the eugenol droplets compared with oil droplets with no eugenol” value ([3]; eugenol up to 10% (v/v) in oil droplets) was “no significant difference in the cell growth”, the “overall growth rate of E. coli inside the fiber” value ([3]; eugenol up to 10% (v/v) in oil droplets, qualitative) was “reduction in the overall growth rate of E. coli” and the “growth of GFP-expressing E. coli in fiber” value ([3]; up to 10% (v/v) eugenol droplets, after 15 hours) was “grew around the oil droplets and covered most of the fibers completely”. The “diameter of eugenol droplets embedded in the fiber after dissolution” value ([4]; over a period of 2 hours) was 50 μm and the “diameter of eugenol droplets embedded in the fiber, initial” value ([4]; start) was 120 μm.
